# Results from US8247211B2, “Glycopeptide antibiotics” (American Cyanamid Company, priority 2001, dated 2012).
# Numbered stars: 1 amine (or outer) side, 2 acyl side, 3 side chain; on linkers, the order of the positions; unused ones are H or OH. Square brackets hold non-standard residues; d marks the D form. Peptide text beside a SMILES is read from it. ξ: configuration not given here. X3 = CC1(C)OCC2OC(N3C(=N)NCC3C(O)C(N[*:1])C(=O)[*:2])C3OC(C)(C)OC3C2O1; ξEnduracididine(βξ-OH,4'ξ) = N=C1NCC(C(O)C(N)C(=O)O)N1; ξPhe(βξ-Me) = CC(c1ccccc1)C(N)C(=O)O
# How the values were obtained:
# Assay in all cases: In vitro antibacterial evaluation: minimum inhibitory concentration (MIC), broth dilution method
# Format in all cases: cell-based
# Conditions in all cases: 18 hours at 35° C.
# Enterococcus sp. = system: Enterococcus sp.
# Outline: (§1)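 First, organisms are seeded at 5×10^5 CFU/mL into Muller-Hinton II […]. Next, antibiotic is applied across 64-0.06 μg/mL by broth dilution (NCCLS M7-A2). Finally, the lowest inhibitory concentration is recorded as MIC.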
# Escherichia coli = system: Escherichia coli
# Outline: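 MIC read as lowest drug level preventing visible growth. Organisms at 5×10^5 CFU/mL were exposed to a 64-0.06 μg/mL dilution series in Muller-Hinton II […] following NCCLS broth dilution standard M7-A2.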
# Staphylococcus sp. = system: Staphylococcus sp.
# Outline: as §1
# Streptococcus sp. = system: Streptococcus sp.
# Outline: as §1
smiles,measurement,setting,value
"CC(c1ccccc1)C1NC(=O)CNC(=O)C(CO)NC(=O)C(C(O)C2CNC(=N)N2C2OC3COC(C)(C)OC3C3OC(C)(C)OC32)NC(=O)C(C(O)C2CNC(=N)N2)NC(=O)C(Cc2ccc(O)cc2)NC1=O (stereo not drawn) [Example 247, Cyclo[glycyl-β-methylphenylalanyltyrosyl-3-(2-iminoimidazolidin-4-yl)seryl-3-(2,3:4,6-diisopropylidenehexopyranosyl)-2-iminoimidazolidin-4-ylserylseryl]] (cyclo(G[ξPhe(βξ-Me)]Y[ξEnduracididine(βξ-OH,4'ξ)][X3]S); configuration not given here)",MIC Enterococcus avium (GC 4558),Enterococcus sp.,>64 µg/mL
same,MIC Enterococcus faecalis (ATCC 29212),Enterococcus sp.,>64 µg/mL
same,MIC Enterococcus faecalis (GC 2242),Enterococcus sp.,>64 µg/mL
same,MIC Enterococcus faecalis (GC 2691),Enterococcus sp.,>64 µg/mL
same,MIC Enterococcus faecalis (GC 3059),Enterococcus sp.; Enterococcus faecalis (GC 3059),>64 µg/mL
same,MIC Enterococcus faecalis (GC 4552),Enterococcus sp.; Enterococcus faecalis (GC 4552),>64 µg/mL
same,MIC Enterococcus faecalis (GC 4553),Enterococcus sp.,>64 µg/mL
same,MIC Enterococcus faecalis (GC 4554),Enterococcus sp.,>64 µg/mL
same,MIC Enterococcus faecalis (GC 6189),Enterococcus sp.,>64 µg/mL
same,MIC Enterococcus faecium (GC 2243),Enterococcus sp.,>64 µg/mL
same,MIC Enterococcus faecium (GC 4556),Enterococcus sp.,>64 µg/mL
same,MIC Enterococcus faecium (GC 4557),Enterococcus sp.,>64 µg/mL
same,MIC Escherichia coli (ATCC 25922),Escherichia coli,>64 µg/mL
same,MIC Escherichia coli (GC 4559),Escherichia coli,>64 µg/mL
same,MIC Escherichia coli (GC 4560),Escherichia coli,>64 µg/mL
same,MIC Coagulase Negative Staphylococcus (GC 4547),Staphylococcus sp.,>64 µg/mL
same,MIC Coagulase Negative Staphylococcus (GC 4548),Staphylococcus sp.,>64 µg/mL
same,MIC Coagulase Negative Staphylococcus (GC 4549),Staphylococcus sp.,>64 µg/mL
same,MIC Coagulase Negative Staphylococcus (GC 4551),Staphylococcus sp.,>64 µg/mL
same,MIC Coagulase Negative Staphylococcus (GC 6257),Staphylococcus sp.,>64 µg/mL
same,MIC Staphylococcus aureus (ATCC 29213),Staphylococcus sp.,>64 µg/mL
same,MIC Staphylococcus aureus (GC 1131),Staphylococcus sp.,>64 µg/mL
same,MIC Staphylococcus aureus (GC 3051),Staphylococcus sp.,>64 µg/mL
same,MIC Staphylococcus aureus (GC 3053),Staphylococcus sp.,>64 µg/mL
same,MIC Staphylococcus aureus (GC 4541),Staphylococcus sp.,>64 µg/mL
same,MIC Staphylococcus aureus (GC 4542),Staphylococcus sp.,>64 µg/mL
same,MIC Staphylococcus aureus (GC 4544),Staphylococcus sp.,>64 µg/mL
same,MIC Staphylococcus aureus (GC 4545),Staphylococcus sp.,>64 µg/mL
same,MIC Staphylococcus aureus-SMITH (GC 4543),Staphylococcus sp.,>64 µg/mL
same,MIC Staphylococcus haemolyticus (GC 4546),Staphylococcus sp.,>64 µg/mL
same,MIC Streptococcus agalactiae (GC 4564),Streptococcus sp.,>64 µg/mL
same,MIC Streptococcus pneumoniae (ATCC 6301),Streptococcus sp.,>64 µg/mL
same,MIC Streptococcus pneumoniae (GC 1894),Streptococcus sp.,>64 µg/mL
same,MIC Streptococcus pneumoniae (GC 4565),Streptococcus sp.; Streptococcus pneumoniae (GC 4565),>64 µg/mL
same,MIC Streptococcus pyogenes (GC 4563),Streptococcus sp.,>64 µg/mL
CC(c1ccccc1)C1NC(=O)CNC(=O)C(CO[Si](C)(C)C(C)(C)C)NC(=O)C(C(O)C2CNC(=N)N2C2OC3COC(C)(C)OC3C3OC(C)(C)OC32)NC(=O)C(C(O)C2CNC(=N)N2)NC(=O)C(Cc2ccc(O)cc2)NC1=O (stereo not shown) [Example 248],MIC Enterococcus avium (GC 4558),Enterococcus sp.,8 µg/mL
same,MIC Enterococcus faecalis (ATCC 29212),Enterococcus sp.,64 µg/mL
same,MIC Enterococcus faecalis (GC 2242),Enterococcus sp.,64 µg/mL
same,MIC Enterococcus faecalis (GC 2691),Enterococcus sp.,32 µg/mL
same,MIC Enterococcus faecalis (GC 4553),Enterococcus sp.,16 µg/mL
same,MIC Enterococcus faecalis (GC 4554),Enterococcus sp.,64 µg/mL
same,MIC Enterococcus faecalis (GC 6189),Enterococcus sp.,32 µg/mL
same,MIC Enterococcus faecium (GC 2243),Enterococcus sp.,32 µg/mL
same,MIC Enterococcus faecium (GC 4556),Enterococcus sp.,32 µg/mL
same,MIC Enterococcus faecium (GC 4557),Enterococcus sp.,16 µg/mL
same,MIC Escherichia coli (ATCC 25922),Escherichia coli,64 µg/mL
same,MIC Escherichia coli (GC 4559),Escherichia coli,64 µg/mL
same,MIC Escherichia coli (GC 4560),Escherichia coli,8 µg/mL
same,MIC Coagulase Negative Staphylococcus (GC 4547),Staphylococcus sp.,16 µg/mL
same,MIC Coagulase Negative Staphylococcus (GC 4548),Staphylococcus sp.,32 µg/mL
same,MIC Coagulase Negative Staphylococcus (GC 4549),Staphylococcus sp.,32 µg/mL
same,MIC Coagulase Negative Staphylococcus (GC 4551),Staphylococcus sp.,32 µg/mL
same,MIC Coagulase Negative Staphylococcus (GC 6257),Staphylococcus sp.,16 µg/mL
same,MIC Staphylococcus aureus (ATCC 29213),Staphylococcus sp.,32 µg/mL
same,MIC Staphylococcus aureus (GC 1131),Staphylococcus sp.,32 µg/mL
same,MIC Staphylococcus aureus (GC 3051),Staphylococcus sp.,64 µg/mL
same,MIC Staphylococcus aureus (GC 3053),Staphylococcus sp.,64 µg/mL
same,MIC Staphylococcus aureus (GC 4541),Staphylococcus sp.,32 µg/mL
same,MIC Staphylococcus aureus (GC 4542),Staphylococcus sp.,64 µg/mL
same,MIC Staphylococcus aureus (GC 4544),Staphylococcus sp.,32 µg/mL
same,MIC Staphylococcus aureus (GC 4545),Staphylococcus sp.,32 µg/mL
same,MIC Staphylococcus aureus-SMITH (GC 4543),Staphylococcus sp.,32 µg/mL
same,MIC Staphylococcus haemolyticus (GC 4546),Staphylococcus sp.,16 µg/mL
same,MIC Streptococcus agalactiae (GC 4564),Streptococcus sp.,64 µg/mL
same,MIC Streptococcus pneumoniae (ATCC 6301),Streptococcus sp.,64 µg/mL
same,MIC Streptococcus pneumoniae (GC 1894),Streptococcus sp.,64 µg/mL
same,MIC Streptococcus pyogenes (GC 4563),Streptococcus sp.,32 µg/mL
